Laboratory results published in patent US10195185B2, “3-(1H-imidazo[4,5-C]pyridin-2-yl)-1H-pyrazolo[4,3-B]pyridines and therapeutic uses thereof” (Samumed, LLC, priority 2015, dated 2019).
pEC50: −log10 of the molar value.

How the values were obtained:
Type in all cases: cell-based
[1] = tested on: Wnt activity (Wnt-responsive human Sp5 promoter, TCF/LEF binding sites) in SW480 colon carcinoma cells; test: Wnt activity screening assay: Sp5-Luc luciferase reporter gene in SW480 cells; details: for pEC50: 10-point dose-response from 10 μM, incubated overnight; for inhibition at 10 µM: given for EC50 of >10 μM, read-out: percent inhibition at 10 μM
Outline: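 First, hygromycin-selected SW480 Sp5-Luc reporter cells are seeded in medium with 1% fetal bovine serum and exposed overnight to compound (up to 10 μM, 0.1% DMSO). Next, luciferase signal is read by luminescence. Finally, EC50 is fitted, or percent inhibition at 10 μM is reported above 10 μM.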

SW480 colon cancer cells = test: Cell viability assay (CellTiter-Blue), four days; details: Homo sapiens, 96 h; for inhibition at 10 µM: read-out: percent inhibition at 10 μM (given for EC50 of >10 μM); for pEC50: CellTiter-Blue cell viability
Outline: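 Approximately 2×10^3 SW480 cells per well are seeded with compound (8 points, threefold steps, top 10 μM) and incubated four days at 37 °C. CellTiter-Blue is then added for about 3 h and fluorescence read. Non-linear regression gives EC50; for values beyond 10 μM, percent inhibition at that concentration is listed.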

[2] = tested on: Primary human fibroblasts derived from IPF patients (LL29 cells) treated with TGF-β1; test: Inhibition of the fibrotic process: αSMA staining in TGF-β1 treated fibroblasts; details: Fibroblast, 96 h, LL29 fibroblasts treated with TGF-β1, 4 days; for inhibition at 10 µM: read-out: percent inhibition in brackets beside EC50 >10 μM
Outline: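 Compound dilutions from 10 μM down to […] are dispensed, LL29 cells added in F12 with 1% FBS, and TGF-β1 (20 ng/mL) follows after 1 h. After 4 days, live-cell αSMA positivity is measured by immunofluorescence and normalized to TGF-β1-treated wells to derive EC50.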

| SMILES | pEC50 [1] | inhibition at 10 µM (SW480 colon cancer cells) | pEC50 (SW480 colon cancer cells) | pEC50 [2] | inhibition at 10 µM [2] | inhibition at 10 µM [1] |
| --- | --- | --- | --- | --- | --- | --- |
| COc1cccc(-c2nccc3[nH]c(-c4n[nH]c5ccc(-c6cccnc6)nc45)nc23)c1 [Compound 994, 3-(4-(3-Methoxyphenyl)-1H-imidazo[4,5-c]pyridin-2-yl)-5-(pyridin-3-yl)-1H-pyrazolo[4,3-b]pyridine] | 6.38 | 0% | < 5.00 | 5.33 |  |  |
| CC(C)(C)C(=O)Nc1cncc(-c2ccc3[nH]nc(-c4nc5c(-c6ccc(Cl)s6)nccc5[nH]4)c3n2)c1 [Compound 1043, N-(5-(3-(4-(5-Chlorothiophen-2-yl)-1H-imidazo[4,5-c]pyridin-2-yl)-1H-pyrazolo[4,3-b]pyridin-5-yl)pyridin-3-yl)pivalamide] | 5.97 |  | 5.48 | < 5.00 | 22% |  |
| Clc1ccc(-c2nccc3[nH]c(-c4n[nH]c5ccc(-c6cncc(CN7CCCC7)c6)nc45)nc23)s1 [Compound 1049, 3-(4-(5-Chlorothiophen-2-yl)-1H-imidazo[4,5-c]pyridin-2-yl)-5-(5-(pyrrolidin-1-ylmethyl)pyridin-3-yl)-1H-pyrazolo [4,3-b]pyridine] | 5.80 |  | 6.03 | 5.93 |  |  |
| CCCC(=O)Nc1cncc(-c2ccc3[nH]nc(-c4nc5c(-c6ccncc6)nccc5[nH]4)c3n2)c1 [Compound 129, N-(5-(3-(4-(Pyridin-4-yl)-1H-imidazo[4,5-c]pyridin-2-yl)-1H-pyrazolo[4,3-b]pyridin-5-yl)pyridin-3-yl)butyramide] | < 5.00 | 0% | < 5.00 | < 5.00 | 0% | 2.2% |
| COc1cccc(-c2nccc3[nH]c(-c4n[nH]c5ccc(-c6cncc(NC(=O)Cc7ccccc7)c6)nc45)nc23)c1 [Compound 1000, N-(5-(3-(4-(3-methoxyphenyl)-1H-imidazo[4,5-c]pyridin-2-yl)-1H-pyrazolo [4,3-b]pyridin-5-yl)pyridin-3-yl)-2-phenylacetamide] | < 5.00 | 25.5% | < 5.00 | 5.59 |  | 31.1% |
| CS(=O)(=O)NCc1cc(F)cc(-c2nccc3[nH]c(-c4n[nH]c5ccc(-c6cncc(NC(=O)CC7CCNCC7)c6)nc45)nc23)c1 [Compound 769, N-(5-(3-(4-(3-Fluoro-5-(methylsulfonamidomethyl)phenyl)-1H-imidazo[4,5-c]pyridin-2-yl)-1H-pyrazolo[4,3-b]pyridin-5-yl)pyridin-3-yl)-2-(piperidin-4-yl)acetamide] | < 5.00 | 7.7% | < 5.00 | 5.30 |  | 9.8% |
| c1cncc(-c2ccc3[nH]nc(-c4nc5c(-c6cccnc6)nccc5[nH]4)c3n2)c1 [Compound 88, 5-(Pyridin-3-yl)-3-(4-(pyridin-3-yl)-1H-imidazo[4,5-c]pyridin-2-yl)-1H-pyrazolo[4,3-b]pyridine] | < 5.00 | 8.5% | < 5.00 | < 5.00 | 22.2% | 34.4% |
| CC(C)(C)C(=O)Nc1cncc(-c2ccc3[nH]nc(-c4nc5c(-c6ccc(F)cc6)nccc5[nH]4)c3n2)c1 [Compound 36, N-(5-(3-(4-(4-Fluorophenyl)-1H-imidazo[4,5-c]pyridin-2-yl)-1H-pyrazolo [4,3-b]pyridin-5-yl)pyridin-3-yl)pivalamide] | 5.48 |  | 5.44 | 5.89 |  |  |
| CN(C)CCNc1cc(F)cc(-c2nccc3[nH]c(-c4n[nH]c5ccc(-c6cncc(OCCN7CCCC7)c6)nc45)nc23)c1 [Compound 786, N^1-(3-Fluoro-5-(2-(5-(5-(2-(pyrrolidin-1-yl)ethoxy)pyridin-3-yl)-1H-pyrazolo[4,3-b]pyridin-3-yl)-1H-imidazo[4,5-c]pyridin-4-yl)-5phenyl)-N^2,N^2-dimethylethane-1,2-diamine] | 5.36 | 15.9% | < 5.00 | < 5.00 | 0% |  |
| c1ccc(CNCc2cncc(-c3ccc4[nH]nc(-c5nc6c(-c7ccsc7)nccc6[nH]5)c4n3)c2)cc1 [Compound 304, N-Benzyl-1-(5-(3-(4-(thiophen-3-yl)-1H-imidazo[4,5-c]pyridin-2-yl)-1H-pyrazolo [4,3-b]pyridin-5-yl)pyridin-3-yl)methanamine] | 5.44 |  | 5.41 | 5.18 |  |  |
| CN1CCN(c2nccc3[nH]c(-c4n[nH]c5ccc(-c6cnccn6)nc45)nc23)CC1 [Compound 648, 3-(4-(4-Methylpiperazin-1-yl)-1H-imidazo[4,5-c]pyridin-2-yl)-5-(pyrazin-2-yl)-1H-pyrazolo[4,3-b]pyridine] | < 5.00 | 5.4% | < 5.00 | 5.19 |  | 1% |
| CCNCc1cncc(-c2ccc3[nH]nc(-c4nc5c(-c6ccccn6)nccc5[nH]4)c3n2)c1 [Compound 146, N-((5-(3-(4-(Pyridin-2-yl)-1H-imidazo[4,5-c]pyridin-2-yl)-1H-pyrazolo[4,3-b]pyridin-5-yl)pyridin-3-yl)methyl)ethanamine] | < 5.00 |  | 5.32 | 5.98 |  | 35.5% |
| Cc1ncc(-c2ccc3[nH]nc(-c4nc5c(-c6ccoc6)nccc5[nH]4)c3n2)n1C [Compound 685, 5-(1,2-Dimethyl-1H-imidazol-5-yl)-3-(4-(furan-3-yl)-1H-imidazo[4,5-c]pyridin-2-yl)-1H-pyrazolo[4,3-b]pyridine] | 6.68 |  | 6.20 | 5.28 |  |  |
| c1cc2[nH]c(-c3n[nH]c4ccc(-c5cncc(OC6CCNCC6)c5)nc34)nc2cn1 [Compound 656, 3-(1H-Imidazo[4,5-c]pyridin-2-yl)-5-(5-(piperidin-4-yloxy)pyridin-3-yl)-1H-pyrazolo[4,3-b]pyridine] | < 5.00 | 10.9% | < 5.00 | 5.48 |  | 15.4% |
| CCNCc1cncc(-c2ccc3[nH]nc(-c4nc5c(-c6ccoc6)nccc5[nH]4)c3n2)c1 [Compound 314, N-((5-(3-(4-(Furan-3-yl)-1H-imidazo[4,5-c]pyridin-2-yl)-1H-pyrazolo[4,3-b]pyridin-5-yl)pyridin-3-yl)methyl)ethanamine] | 5.46 |  | 6.16 | < 5.00 | 20.6% |  |
| CN1CCN(c2nccc3[nH]c(-c4n[nH]c5ccc(-c6cncc(N)c6)nc45)nc23)CC1 [Compound 227, 5-(3-(4-(4-Methylpiperazin-1-yl)-1H-imidazo[4,5-c]pyridin-2-yl)-1H-pyrazolo[4,3-b]pyridin-5-yl)pyridin-3-amine] | < 5.00 | 0% | < 5.00 | < 5.00 | 22.5% | 15.3% |
| Cn1cc(-c2ccc3[nH]nc(-c4nc5c(-c6ccc7c(c6)OCO7)nccc5[nH]4)c3n2)c(CO)n1 [Compound 1151, (4-(3-(4-(Benzo[d][1,3]dioxol-5-yl)-1H-imidazo[4,5-c]pyridin-2-yl)-1H-pyrazolo [4,3-b]pyridin-5-yl)-1-methyl-1H-pyrazol-3-yl)methanol] | < 5.00 | 3.7% | < 5.00 | < 5.00 | 0% | 33.9% |
